These results are taken from paper PMC12040169 (PLOS Biology, 2025).

The data set in a line: in vitro. The conditions noted are these: human, hela cells, % viability.

As a reminder, the viability is a read-out of living cells in per cent, often relative to untreated cells. Consider `CC(Oc1ccc2c(c1)OCO2)C(=O)NNC(=O)Nc1cccc(Cl)c1Cl` (centres unmarked) [CBK266852], for which the viability at 28.5 h, 10 µM amounted to 86.5%. In the case of `O=C(c1cccc(-c2nnc(-c3ccccc3)o2)c1)N1CCN(C(=O)c2ccco2)CC1` [CBK269809], the viability at 28.5 h, 10 µM is 78.5%. Same read-out and setting: the figure for `CC(C)(C)OC(=O)N1CCN(C(=O)c2cc(-c3cccnc3)on2)CC1` [CBK305648] is 88.7%; for `O=C(O)CCC1=C2c3ccccc3CCN2C(=O)CC1` [CBK286945] it is 108%; for `O=C1c2cccc([N+](=O)[O-])c2C(=O)N1c1cc(Cl)cc(Cl)c1` [CBK115326] it is 112%. The same measure, in the same setting: for `Cn1nccc1CN1CCC(Oc2ccccc2F)CC1` [CBK281618] the value was 92%; for `CN(c1ncccc1C#N)C1CCN(CCC(N)=O)CC1` [CBK016793], 87.2%; for `CCOC(=O)Nc1ccc2c(c1)N(C(=O)CN(C)C)c1ccccc1S2` [CBK261290C], 106%.

For the compound `CS(=O)(=O)c1ccc(Cn2c(=O)[nH]c3ncc(-c4cccc(/C=C/C(=O)O)c4)nc32)cc1` [CBK065059], the viability at 28.5 h, 10 µM was found to be 97.7%. Turning to `Cc1cc(C)n(CC(C)CNC(=O)Cc2csc(C(C)(C)C)n2)n1` (centres unmarked) [CBK305340], the viability at 28.5 h, 10 µM is 96.1%. Regarding `O=C(NCCc1c[nH]c2ccc(F)cc12)Nc1ccccc1` [CBK269964], the viability at 28.5 h, 10 µM came out at 107%. The same measure, in the same setting: the figure for `CCOC(=O)c1cc(-c2cccc(Cl)c2)oc1C` [CBK045775] is 104%. Still for that read-out and setting: the figure for `O=C1CSC2(C(=O)Nc3ccccc32)N1c1ccc([N+](=O)[O-])cc1` (centres unmarked) [CBK026035] is 93.5%; for `O=C(NCc1ccccn1)Nc1ccc2c(c1)OCO2` [CBK267014] it is 97.1%. On to `O=C(CN1CCCCC1)Nc1cccc(-n2cnnn2)c1` [CBK027661], for which the viability at 28.5 h, 10 µM is 105%. On the same count and under the same terms, for `CC(C)(C)OC(=O)N1CCCC(C(=O)NC2CCCc3ccccc32)C1` (centres unmarked) [CBK305617] the value was 93.2%; for `O=C(O)[C@@H]1CCCN1C(=O)C1CCC(Cn2nnc3ccccc3c2=O)CC1` (some centres unmarked) [CBK286658], 88.6%; for `CCc1noc(C)c1C(=O)Nc1cc(S(=O)(=O)N2CCCCC2)ccc1N(C)C` [CBK295328], 85.4%. Still for that read-out and setting: the figure for `c1ccc(C(CCN2CCc3ccccc3C2)c2ccccc2)cc1` [CBK126404] is 99.1%; for `O=C(NCCN1CCOCC1)C1CCN(C(=O)c2cccc(F)c2)CC1` [CBK304627] it is 85.8%; for `CCn1c(SCC(=O)O)nnc1-c1c[nH]c2ccccc12` [CBK287089] it is 85.9%. Same read-out and setting: for `O=C(Nc1ccc2oc(-c3cccnc3)nc2c1)c1sc2cc(Cl)ccc2c1Cl` [CBK267876] the value was 97.4%; for `N#Cc1cccc(-n2cc(-c3ccc(C(F)(F)F)cc3)nn2)c1` [CBK112957], 88.1%. As for `Cc1cc(C(=O)NC(Cc2c[nH]c3ccccc23)C(=O)O)c(C)o1` (centres unmarked) [CBK286560], the viability at 28.5 h, 10 µM was 86.5%.

As for `COCCNc1nc(-c2cc(C(C)C)ccc2OC)ccc1C(=O)Nc1cccc(OC)c1` [CBK105904], the viability at 28.5 h, 10 µM was 96.9%. On the same count and under the same terms, for `COc1cc2c(cc1OC)C(C)N(C(=O)CCC(=O)O)CC2` (centres unmarked) [CBK269873] the value was 92.5%. The same measure, in the same setting: the figure for `Cc1cc(C)n(-c2nc(NC(C)(C)C)nc(N3CCOCC3)n2)n1` [CBK269810] is 85.5%; for `O=C(O)C1Cc2nc[nH]c2C(c2ccc(F)cc2)N1` (centres unmarked) [CBK286970] it is 86.1%; for `O=C(O)/C(=C\c1ccccc1)NC(=O)c1cccc([N+](=O)[O-])c1` [CBK263348] it is 96.3%. Consider `O=C(Nc1ccc(=O)n2c1[C@@H]1C[C@@H](CN(C(=O)Nc3ccc(F)cc3)C1)C2)c1ccccc1` [CBK288715], for which the viability at 28.5 h, 10 µM amounted to 89.9%. With `COC(=O)c1c(C)n(CCCNc2ccc([N+](=O)[O-])cc2Cl)c2ccc(O)cc12` [CBK268363], the viability at 28.5 h, 10 µM was 86.2%.

As for `Cc1nc(CN2CCC(O)(c3ccccc3F)CC2)c2ccccn12` [CBK282799], the viability at 28.5 h, 10 µM came out at 98.1%. On to `O=C(Cc1ccccc1)N1CCN(Cc2ccccn2)CC1` [CBK263039], for which the viability at 28.5 h, 10 µM came out at 88.6%. On to `Cc1ccc(OCC(=O)NCCCN(C)C)cc1` [CBK263595], for which the viability at 28.5 h, 10 µM amounted to 98.3%. With `COc1ccc(S(=O)(=O)Nc2nccc(-c3ccc(CN4C(=O)CCC4=O)cc3)n2)cc1` [CBK067438], the viability at 28.5 h, 10 µM was found to be 91.5%. With `COc1ccc(/C=C/C(=O)c2ccc(OC)cc2OC)c(OC)c1` [CBK261666], the viability at 28.5 h, 10 µM was 87.3%.

Turning to `CCCC/C=C/c1cc(NCCC)n2nccc2n1` [CBK037127], the viability at 28.5 h, 10 µM is 99.1%. On to `Cc1ccc(OCC(O)Cn2c(=N)n(Cc3ccccc3)c3ccccc32)cc1` (centres unmarked) [CBK266293C], for which the viability at 28.5 h, 10 µM was 91.7%. On to `Cc1cc(N2C[C@H](CO)OC2=O)ccc1C#N` [CBK017978], for which the viability at 28.5 h, 10 µM was determined as 116%. Still for that read-out and setting: for `c1cc(-c2nnc3n2CCCCS3)ccn1` [CBK288543] the value was 99.3%.

`O=C(Nc1ccc(S(=O)(=O)N2CCCCC2)cc1)c1nc(SCc2ccccc2)ncc1Cl` [CBK268901]: the viability at 28.5 h, 10 µM was found to be 107%. On the same count and under the same terms, for `Cc1nc(CN2CCCC(NCc3ccc4ccccc4c3)C2)no1` (centres unmarked) [CBK305160] the value was 96.5%. For `CCOC(=O)N1CCC2(CC1)OCc1cc(C#N)ccc1O2` [CBK131678], the viability at 28.5 h, 10 µM (bulk resorufin, single well) amounted to 87%. With `COc1cccc(OC)c1-c1cn2ccnc2c(NCc2ccccn2)n1` [CBK037439], the viability at 28.5 h, 10 µM came to 93.7%. Same read-out and setting: for `CN1Cc2ccccc2CC1C(=O)N1CCc2ncc(Cl)cc2C1` (centres unmarked) [CBK282568] the value was 85.5%. On the same count and under the same terms, the figure for `COc1ccccc1-c1cc2c(=O)n(C)c(-c3ccc(CNC(C)C)cc3)cc2o1` [CBK051699C] is 84.5%.

With `COc1ccc(S(=O)(=O)N(C)CC(=O)N2CCN(Cc3ccccc3)CC2)cc1C` [CBK268221], the viability at 28.5 h, 10 µM was found to be 99.6%. The same measure, in the same setting: the figure for `Fc1ccc(Oc2nccnc2N2CCN(Cc3cccnc3)CC2)cc1` [CBK083011] is 87.5%. Still for that read-out and setting: the figure for `CC(=O)N(C)c1nc(-c2ccco2)ccc1C(=O)Nc1cc(C)nn1C` [CBK106356] is 89.3%; for `CC1(C)Cc2nc3[nH]nc(N)c3cc2CO1` [CBK261476] it is 93.9%.

`COC(=O)C(=O)N1CC[C@H]2NC(=O)N(Cc3ccccc3)C(=O)[C@H]21` [CBK289292]: the viability at 28.5 h, 10 µM was 98.6%. Still for that read-out and setting: the figure for `Nc1ncc(-c2ccc(C(=O)N3CCOCC3)cc2)nc1-c1ccc(CCC(=O)O)cc1` [CBK126368] is 97.3%; for `OCCNc1nc2cc(Cl)ccc2[nH]1` [CBK262295] it is 101%. As to `Cc1ccc(N2CCCN(C(=O)CCc3ccsc3)CC2)nn1` [CBK304573], the viability at 28.5 h, 10 µM amounted to 91.1%. On the same count and under the same terms, for `COc1ccc(S(=O)(=O)N(CC(=O)O)C2CCCCC2)cc1Cl` [CBK267997] the value was 81.5%. On the same count and under the same terms, for `O=C(c1ccco1)N1CCN(C(=S)Nc2ccc(S(=O)(=O)Nc3ncccn3)cc2)CC1` [CBK267096] the value was 104%.

In the case of `Cc1ccc(OCc2occc2C(=O)NCCn2ccnc2C)cc1` [CBK306725], the viability at 28.5 h, 10 µM stood at 93.7%. Same read-out and setting: for `CCOC(=O)c1sc2ncccc2c1N` [CBK115371] the value was 83.9%; for `O=C1CC(C(=O)N2CCN(c3ncccn3)CC2)c2ccccc21` (centres unmarked) [CBK144505], 99.2%; for `COc1ccc(-c2cnc(N)c(NCC(C)(C)CO)n2)c(OC)c1OC` [CBK063542], 103%.

With `CCC(CC)C(=O)N1CCC(c2nnc3n2CCCCC3)CC1` [CBK284614], the viability at 28.5 h, 10 µM is 86.6%. The same measure, in the same setting: the figure for `CC1CCCCN1Cc1nc2c(c(=O)n(C)c(=O)n2C)n1Cc1ccc(Br)cc1` (centres unmarked) [CBK269184] is 95.3%; for `COc1cc2[nH]c(=S)n3nc(-c4ccncc4)nc3c2cc1OC` [CBK288559] it is 104%. Same read-out and setting: for `CN(C)Cc1cc(-c2ccc(CNC(=O)C3CC3)cc2)nn1C` [CBK283470] the value was 80.5%; for `O=C(C1COc2ccccc2O1)N(Cc1cccnc1)c1nc2c(F)cccc2s1` (centres unmarked) [CBK294421], 91%; for `Cc1ccccc1C(=O)N1C2CCC1CC(O)(Cn1ccnc1C)C2` (centres unmarked) [CBK282740], 90.1%. Still for that read-out and setting: the figure for `O=C1c2ccccc2C(=O)N1c1ccccn1` [CBK113682] is 99.5%; for `COc1cc(CNc2ccc(N3CCCCC3)cc2)ccc1OCc1ccccc1F` [CBK074472] it is 95.5%. With `CSCCN1CCN(c2nccnc2OCCN2C(=O)CCC2=O)CC1` [CBK084301], the viability at 28.5 h, 10 µM is 105%. On the same count and under the same terms, the figure for `CCN(CC)C(=O)C1CCCN(C(=O)c2ccc3c(c2)COC(C2CCN(C(=O)OC(C)(C)C)CC2)O3)C1` (centres unmarked) [CBK173279] is 100%; for `CCc1nnc(NS(=O)(=O)c2ccc(NC(=O)c3ccccc3[N+](=O)[O-])cc2)s1` [CBK045494] it is 94.2%; for `O=C(C1CCCC1)N1CCCCC1c1n[nH]cc1-c1ccncc1` (centres unmarked) [CBK283427] it is 90.4%. Same read-out and setting: the figure for `Cc1nn(C)c2ncc(S(=O)(=O)Nc3cc(C(N)=O)ccc3Cl)cc12` [CBK306104] is 70%. For the compound `Cc1ccc(Cl)cc1N(CC(=O)Nc1ccccc1C(=O)O)S(C)(=O)=O` [CBK264020], the viability at 28.5 h, 10 µM came out at 89.5%. For `CNc1cc(N2CCN(S(=O)(=O)N(C)C)CC2)ccc1[N+](=O)[O-]` [CBK269311], the viability at 28.5 h, 10 µM worked out at 89.8%.

For the compound `CN(C)Cc1ccc2nc(C(F)(F)F)cc(SCCC(=O)O)c2c1` [CBK149715T], the viability at 28.5 h, 10 µM came out at 91.4%. For the compound `COc1ccccc1-c1nccnc1N1CCCC1CO` (centres unmarked) [CBK036735], the viability at 28.5 h, 10 µM is 102%. Same read-out and setting: for `COc1ccc(NC(=O)c2cnccn2)c(OC)c1` [CBK262240] the value was 105%; for `CN1CCN(C(=O)c2ccc(-c3ccco3)nc2N(C)C)CC1` [CBK106121], 94.4%.

Take `Cc1ccc2c(c1)C(NC(=O)C1CCN(S(C)(=O)=O)CC1)CC(C)(C)O2` (centres unmarked) [CBK307604]: the viability at 28.5 h, 10 µM worked out at 109%.
